In patent publication US12599588B2, “Inhibitor for V-ATPase activity, antibacterial agent, medicine, antibacterial method and screening method” (Japan Science and Technology Agency, priority 2019, dated 2026):
Like-named read-outs stand apart in the source and are kept apart here.

Experiments:
[1] = target: T1, V-ATPase (purified from enterococci or recombinant E. coli) (Enterococcus hirae, UniProt P43439+P43457); assay: ATPase activity measurement (molybdenum blue method, primary screening); assay type: biochemical
T1 construct: made in house; host or cells: Enterococcus hirae (native) or recombinant E. coli
Description: The ATPase activity can be measured by a molybdenum blue method for measuring absorbance of the inorganic phosphoric acid generated by hydrolysis of ATP. As the reaction conditions, conditions for measuring the ATPase activity can be adopted. As the buffer solution used in the reaction, Tris-HCl buffer can be used. The reaction time is usually 10 to 60 minutes, but can be appropriately adjusted depending on the air temperature or the like. The reaction of V-ATPase is terminated with the addition of a surfactant such as sodium dodecyl sulfate (SDS), and into which a color-developing liquid (such as ferrous sulfate) is added to give a color, and then the concentration of the inorganic phosphoric acid can be calculated by the measurement of the absorbance at a wavelength of 650 nm.
From the concentration of inorganic phosphoric acid calculated above, the inhibition rate of the V-ATPase reaction can be calculated. That is, a graph is created in which the inhibition rate is plotted on the vertical axis and the concentration of compound is plotted on the horizontal axis, and the concentration (IC50) at which the inhibition rate becomes 50% is determined. As the concentration of compound at which IC50 is obtained becomes lower, a higher V-ATPase inhibitory effect is exerted with a small amount, and accordingly, the compound can be taken as a candidate compound for the inhibitor for V-ATPase activity.
The V-ATPase was prepared by the method disclosed in the following papers. • Paper 1: Takeshi Murata, et. al, “Purification and Reconstitution of Na^+-translocating Vacuolar ATPase from Enterococcus hirae”, J. Biol. Chem. 272, 24885-24890 (1997) • Paper 2: Takeshi Murata, et. al, “Torque Generation of Enterococcus hirae V-ATPase”, J. Biol. Chem. 289, 31212-31223 (2014)
ATPase activity measurement was conducted by a molybdenum blue method that quantifies the inorganic phosphoric acid generated by hydrolysis of ATP with the use of absorbance measurement. The measurement was conducted in a 96-well plate, and 0.05% DDM (n-dodecyl-β-D-maltoside), 10 μg/mL of V-ATPase (purified from enterococci or recombinant E. coli), and 20 μM of a compound were added into a buffer (100 mM Tris-HCl at pH 8.5, 100 mM NaCl, 5 mM MgSO4, 10% glycerol). Into the mixture obtained above, ATP was added so as to be 5 mM, the whole amount was set to 100 μL, the reaction was started while stirring the mixture with a stirrer, and the reaction time was set to 30 minutes. Since the ATPase activity changes largely depending on the reaction temperature, the reaction time was adjusted within the range of 10 to 60 minutes corresponding to the air temperature on the day of the experiment. With the addition of 50 μL of 20% SDS, the V-ATPase was denatured and the reaction was terminated, and into the resultant mixture, 75 μL of color-developing liquid (5% ferrous sulfate, 1.6% ammonium molybdate, and 1 M sulfuric acid) was added to give a color. Immediately, the absorbance at a wavelength of 650 nm was measured by using a plate reader. Four kinds of KH2PO4 aqueous solutions of 0.2 mM, 0.5 mM, 1.0 mM, and 1.5 mM were reacted with MQ (ultrapure water) in the same experiment system, and then the activity of V-ATPase was measured by determining the concentration of generated inorganic phosphoric acid with the use of a created calibration curve. In this regard, a compound that had inhibited 50% or more of the activity of V-ATPase was diluted stepwisely so as to have a concentration of 10 μM, 5 μM, 2 μM, 1 μM, 500 nM, 200 nM, 100 nM, and 50 nM, and the measurement similar to the above was conducted.
From the results of the above measurement of ATPase activity, the inhibition rate was calculated comparing the decrease in the activity by assuming the activity under the condition of no compound addition as 100. A graph was created in which the inhibition rate was plotted on the vertical axis and the concentration of compound was plotted on the horizontal axis (FIG. 2). […]

[2] = tested on: enterococci (Enterococcus hirae); assay: Growth experiment of enterococci (secondary screening), OD600 at pH 7.0 and pH 8.5; assay type: cell-based; design: Growth inhibition rate (%): concentration or dose not given beside the values; details: for Specificity: growth inhibition at pH 8.5 versus pH 7.0
Description: In the culture of enterococci (Enterococcus hirae), a culture medium in which the Na^+ concentration had been adjusted by adding a buffer solution using 2% tryptone and 1% yeast extract as the base was used. In a case of adding glucose, glucose prepared in a 50% solution was added so as to be 1% into the culture medium when the culture medium was used. The whole amount 200 μL was cultured using a 96-well plate, and OD600 was measured every hour by using a plate reader. By using culture media at pH 7.0 and pH 8.5, the effect of pH on the growth was observed. In culture of bacteria, the pH often fluctuates largely due to the decomposition of the sugars required for the growth, and it is extremely important to maintain a constant pH in this experiment, and therefore, the pH was maintained constant with the addition of a buffer suitable for each pH. Since the V-ATPase is expressed only under an alkaline condition, the growth inhibition observed with the addition of an inhibitor is largely dependent on the pH.
IC50 and the like of the above 24 kinds of compounds are described in the following table. […] Furthermore, with respect to the symbol “n.a.”, a compound having a growth inhibition rate of 60% or more at pH 7.0 is determined that there was the growth inhibition. In addition, the growth inhibition rate of a compound having no clear inhibition is also recorded for reference.

[3] = IC50 (nM), Table 2, inhibition of V-ATPase ATPase activity, pH 8.5 buffer
[4] = high affinity for V-ATPase (IC50), unit inferred
[5] = Table 2, E. hirae growth, pH not stated (media pH 7.0 and pH 8.5)
[6] = Table 2, inhibition of V-ATPase ATPase activity, pH 8.5 buffer, read-out: IC50
[7] = Table 3, 2-phenyl benzimidazole derivatives
[8] = Table 3, 2-phenyl benzimidazole derivatives, read-out: IC50

| Compound | Growth inhibition rate (%) [2, 5] | Specificity ([2]; Table 2) | IC50 [1, 6] | further results |
| --- | --- | --- | --- | --- |
| O=C1N=C(NC2CCCC2)S/C1=C\c1ccc(OC(F)F)cc1OC(F)F [Compound V-6, (Z)-5-(2,4-bis(difluoromethoxy)benzylidene)-2-(cyclopentylamino) thiazol-4 (5H)-one] | 77.9% | + (there was no growth inhibition at pH 7.0 but was the growth inhibition at pH 8.5) |  | IC50 [1, 3]: 80 nM; IC50 [1, 4]: ≤ 400 nM; non-specific inhibition / non-specific bond [2]: no non-specific inhibition |
| CN(C)c1ccc2nc3ccc(N(C)C)cc3[s+]c2c1 [Compound V-27] | 64.0% | + (there was no growth inhibition at pH 7.0 but was the growth inhibition at pH 8.5) |  | IC50 [1, 3]: 3000 nM |
| CC1=C(/C=C/C(C)=C/C=C/C(C)=C/C(=O)Nc2ccc(O)cc2)C(C)(C)CCC1 [Compound V-84, (2E,4E,6E,8E)-N-(4-hydroxyphenyl)-3,7-dimethyl-9-(2,6,6-trimethylcyclohexyl-1-en-1-yl)nona-2,4,6,8-tetraeneamide] | 90.6% | − (there was no growth inhibition in any case) |  | IC50 [1, 3]: 80 nM; IC50 [1, 4]: ≤ 400 nM; non-specific inhibition / non-specific bond [2]: non-specific inhibition |
| CCC(C)C1OC2(CCC1C)CC1CC(CC=C(C)C(OC3CC(OC)C(OC4CC(OC)C(O)C(C)O4)C(C)O3)C(C)C=CC=C3COC4C(O)C(C)=CC(C(=O)O1)C34O)O2 (stereo not drawn) [Compound V-85] | 66.4% | + (there was no growth inhibition at pH 7.0 but was the growth inhibition at pH 8.5) |  | IC50 [1, 3]: 10000 nM |
| CCCCCCCCc1ccc(O)c(C=O)c1 [Compound V-91] | 90.9% | n.a. (there was the growth inhibition in any case) | 850 nM |  |
| CCCCC#Cc1cncc(C(=O)N/N=C/c2cccs2)c1 [Compound V-99] | 6.7% | − (there was no growth inhibition in any case) | 2500 nM |  |
| CCCCCOc1ccc(NC(=O)c2cccs2)cc1 [Compound V-103] | 45.3% | + (there was no growth inhibition at pH 7.0 but was the growth inhibition at pH 8.5) |  | IC50 [1, 3]: 100 nM |
| CC(C)CN(CC(C)C)c1ccc([N+](=O)[O-])cc1/C=N/Nc1ccccc1 [Compound V-105] | 90.8% | n.a. (there was the growth inhibition in any case) | 1000 nM |  |
| CC(Cc1ccc(O)c(O)c1)C(C)Cc1ccc(O)c(O)c1 (stereo not drawn) [Compound V-115] | 0.3% | − (there was no growth inhibition in any case) |  | IC50 [1, 3]: 400 nM |
| CC1(C)CC2(CC(C)(C)c3cc(O)c(O)cc32)c2cc(O)c(O)cc21 [Compound V-124] | 49.2% | + (there was no growth inhibition at pH 7.0 but was the growth inhibition at pH 8.5) | 300 nM |  |
| CCCCCCCCCOc1ccc(C=C2C(=O)NC(=O)NC2=O)cc1 [Compound V-130, 5-(4-(nonyloxy)benzylidene)pyrimidine-2,4,6 (1H,3H,5H)-trione] | 88.2% | − (there was no growth inhibition in any case) |  | IC50 [1, 3]: 20 nM; IC50 [1, 4]: ≤ 400 nM; non-specific inhibition / non-specific bond [2]: non-specific inhibition |
| CCCCC1CCC(C(=O)Oc2ccc(C=O)c(O)c2)CC1 (stereo not drawn) [Compound V-149] | 90.5% | n.a. (there was the growth inhibition in any case) | 4500 nM |  |
| CN(C)C(=S)N/N=C1\C(=O)C(c2ccccc2)(c2ccccc2)c2ccccc21 [Compound V-150] | 70.4% | n.a. (there was the growth inhibition in any case) | 500 nM |  |
| COc1ccc(C(=O)N/N=C/C(C)=C/c2ccc(C(C)C)cc2)cc1 [Compound V-153] | 13.3% | − (there was no growth inhibition in any case) | 1000 nM |  |
| O=C(NC(c1ccccc1)c1cc([N+](=O)[O-])c2cccnc2c1O)C1CCCCC1 (stereo not drawn) [Compound V-157] | 84.2% | n.a. (there was the growth inhibition in any case) | 2000 nM |  |
| Cc1ccc2[nH]c(-c3ccc(N4CCCC4)cc3)nc2c1 [Compound V-161-01] |  |  |  | IC50 ([1]; IC50 (nM), Table 3, 2-phenyl benzimidazole derivatives): 50 nM; Growth inhibition rate (%) [2, 7]: 89.7%; Specificity ([2]; Table 3): + (there was no growth inhibition at pH 7.0 but was the growth inhibition at pH 8.5) |
| CCc1ccc(-c2nc3cc(C)ccc3[nH]2)cc1 [Compound V-161-02] |  |  |  | IC50 [1, 8]: 120 nM; Growth inhibition rate (%) [2, 7]: 88.5%; Specificity ([2]; Table 3): + (there was no growth inhibition at pH 7.0 but was the growth inhibition at pH 8.5) |
| Cc1ccc2[nH]c(-c3ccc(Br)cc3)nc2c1 [Compound V-161-03] |  |  |  | IC50 [1, 8]: 120 nM; Growth inhibition rate (%) [2, 7]: 89.8%; Specificity ([2]; Table 3): + (there was no growth inhibition at pH 7.0 but was the growth inhibition at pH 8.5) |
| Cc1ccc2[nH]c(-c3ccc(I)cc3)nc2c1 [Compound V-161-04] |  |  |  | IC50 [1, 8]: 120 nM; Growth inhibition rate (%) [2, 7]: 90.3%; Specificity ([2]; Table 3): + (there was no growth inhibition at pH 7.0 but was the growth inhibition at pH 8.5) |
| COc1ccc(-c2nc3cc(C)ccc3[nH]2)cc1 [Compound V-161-10] |  |  |  | IC50 [1, 8]: 120 nM; Growth inhibition rate (%) [2, 7]: 86.8%; Specificity ([2]; Table 3): + (there was no growth inhibition at pH 7.0 but was the growth inhibition at pH 8.5) |
| CCOc1ccc2nc3cc(N)ccc3c(N)c2c1 [Compound V-170] | 49.7% | + (there was no growth inhibition at pH 7.0 but was the growth inhibition at pH 8.5) | 10000 nM |  |
| N=C(N)Nc1nc(-c2ccccc2)c2cc(F)ccc2n1 [Compound V-171] | 85.6% | + (there was no growth inhibition at pH 7.0 but was the growth inhibition at pH 8.5) | 2500 nM |  |
| CCCOc1ccc(/C=N/NC(=N)N)c(OCCC)c1 [Compound V-189] | 91.2% | + (there was no growth inhibition at pH 7.0 but was the growth inhibition at pH 8.5) | 4500 nM |  |
| COc1ccc(C(c2ccc3cccnc3c2O)N2CCOCC2)cc1 (stereo not drawn) [Compound V-201] | 19.6% | − (there was no growth inhibition in any case) | 4000 nM |  |
